melting point: 231 to 233 °C
SMILES: Cc1cc(NC(=O)c2ccccc2)cc(C(=O)NC(C)C)c1NC(=O)c1cc(C(F)(F)F)nn1-c1ncccc1Cl
